From ChEMBL document CHEMBL5042495, “Lead Optimization of Influenza Virus RNA Polymerase Inhibitors Targeting PA-PB1 Interaction” (J Med Chem, 2022)
pEC50: −log10 of the molar value. Activity calls are given as the source filed them. No cut-off for these calls is given here.

Columns and labels:
[1] = system: Influenza A virus; test: Antiviral activity against Influenza A virus A/Puerto Rico/8/34(H1N1) strain infected in MDCK cells assessed as reduction in viral infection incubated for 48 hrs by crystal violet staining based assay; assay type: functional, organism-based
[2] = system: HEK293T; test: Inhibition of Influenza A virus RNA dependent RNA polymerase activity in HEK293T cells co-transfected with pPoll/NP(0)GFP(0) at 10 to 40 uM after 2 hrs post-transfection followed by compound addition incubated for 22 hrs by fluorescence microscopic analysis; assay type: cell-based; conditions: dose 10-40 µM
[3] = system: Influenza A virus; test: Antiviral activity against Influenza A virus A/California/7/2009(H1N1) strain infected in MDCK cells assessed as reduction in viral infection incubated for 48 hrs by crystal violet staining based assay; assay type: functional, organism-based
[4] = system: Influenza A virus; test: Antiviral activity against Influenza A virus A/WSN/33(H1N1) strain infected in MDCK cells assessed as reduction in viral infection incubated for 48 hrs by crystal violet staining based assay; assay type: functional, organism-based
[5] = system: Influenza A virus; test: Antiviral activity against Influenza A virus A/Virginia/ATCC2/2009(H1N1) strain infected in MDCK cells assessed as reduction in viral infection incubated for 48 hrs by crystal violet staining based assay; assay type: functional, organism-based
[6] = system: Influenza A virus; test: Antiviral activity against Influenza A virus A/Aichi/8/68(H3N2) strain infected in MDCK cells assessed as reduction in viral infection incubated for 48 hrs by crystal violet staining based assay; assay type: functional, organism-based
[7] = system: HEK293T; test: Inhibition of Influenza A virus RNA dependent RNA polymerase activity in HEK293T cells co-transfected with pPoll/NP(0)GFP(0) after 2 hrs post-transfection followed by compound addition incubated for 22 hrs by fluorescence microscopic analysis; assay type: cell-based
[8] = Cytotoxicity in dog MDCK cells assessed as reduction in cell viability incubated for 48 hrs by crystal violet staining based assay; assay type: toxicity, Canis lupus familiaris
[9] = system: HEK293T; test: Inhibition of Influenza A virus RNA dependent RNA polymerase activity in HEK293T cells co-transfected with pPoll/NP(0)GFP(0) assessed as reduction on number of GFP positive cells at 10 uM after 2 hrs post-transfection followed by compound addition incubated for 22 hrs by fluorescence microscopic analysis; assay type: cell-based
[10] = system: Influenza A virus; test: Antiviral activity against Influenza A virus B/Lee/40(type B) strain infected in MDCK cells assessed as reduction in viral infection incubated for 48 hrs by crystal violet staining based assay; assay type: functional, organism-based
[11] = system: HEK293T; test: Inhibition of Influenza A virus RNA dependent RNA polymerase activity in HEK293T cells co-transfected with pPoll/NP(0)GFP(0) assessed as reduction on number of GFP positive cells at 10 nM after 2 hrs post-transfection followed by compound addition incubated for 22 hrs by fluorescence microscopic analysis; assay type: cell-based

| SMILES | pEC50 [4] | CC50 at 48 h [8] [µM] | further results |
| --- | --- | --- | --- |
| CCOC(=O)C1=C[C@@H](OC(CC)CC)[C@H](NC(C)=O)[C@@H](N)C1 [OSELTAMIVIR PHOSPHATE] | 5.70 | – | pEC50 [1]: 4.94; inhibition [2]: inactive; pEC50 [3]: 5.34; pEC50 [5]: 4.73; pEC50 [6]: 5.65 |
| CCc1ccc2[nH]c(=O)c(CN(Cc3ccc(C(C)(C)C)cc3)[C@@H](C)c3ccc(OC)cc3)cc2c1 | 6.99 | > 5 | inhibition [7]: Active; inhibition [2]: Dose-Dependent Effect; inhibition [9]: Active |
| COc1ccc2[nH]c(=O)c(CN(Cc3ccc(C(C)(C)C)cc3)C(C)c3ccc(OC)c(Cl)c3)cc2c1 (stereo unspecified) | 7.21 | > 10 | inhibition [7]: Active; pEC50 [1]: 7.14; pEC50 [3]: 6.64; pEC50 [5]: 7.11; pEC50 [10]: 7.10; inhibition [9]: Active; pEC50 [6]: 7.07 |
| NC(=O)c1nc(F)cnc1O [FAVIPIRAVIR] | 5.72 | – | pEC50 [3]: 5.54 |
| Cc1ccc2[nH]c(=O)c(CN(Cc3ccc(OC(F)(F)F)cc3)Cc3ccc(C(C)(C)C)cc3)cc2c1 | 6.31 | > 5 | – |
| CCCOc1ccc(CN(Cc2ccc(C(C)(C)C)cc2)Cc2cc3cc(C)ccc3[nH]c2=O)cc1 | 5.52 | > 5 | – |
| Cc1ccc2cc(CN(Cc3ccc(F)cc3)Cc3ccc(C(C)(C)C)cc3)c(=O)[nH]c2c1 | 5.80 | > 33 | – |
| COc1ccc(C(C)N(Cc2ccc(C(C)(C)C)cc2)Cc2cc3cc(C4CC4)ccc3[nH]c2=O)cc1Cl (stereo unspecified) | 7.16 | > 10 | – |
| Cc1ccc2[nH]c(=O)c(CN(Cc3ccc(C(C)(C)C)cc3)[C@@H](C)c3ccc(F)cc3)cc2c1 | 6.30 | > 5 | – |
| Cc1ccc2[nH]c(=O)c(CN(Cc3ccc(C(C)(C)C)cc3)Cc3ccc(N(C)C)c(Cl)c3)cc2c1 | 6.66 | > 10 | – |
| Cc1ccc2cc(CN(Cc3ccc(C(C)C)cc3)Cc3ccccc3F)c(=O)[nH]c2c1 | 5.74 | > 33 | – |
| COc1ccc(C(C)N(Cc2ccc(C(C)(C)C)cc2)Cc2cc3cc(C)ccc3[nH]c2=O)cc1 (stereo unspecified) | 6.59 | > 5 | – |
| CC(C)c1ccc2[nH]c(=O)c(CN(Cc3ccc(F)cc3)Cc3ccc(C(C)(C)C)cc3)cc2c1 | 5.72 | 7.9 | – |
| CCc1ccc2[nH]c(=O)c(CN(Cc3ccc(C(C)(C)C)cc3)C(C)c3ccc(OC)c(Cl)c3)cc2c1 (stereo unspecified) | 6.77 | > 10 | – |
| Cc1ccc2cc(CN(Cc3ccc(F)cc3)Cc3ccc(C(F)(F)F)cc3)c(=O)[nH]c2c1 | 5.68 | > 33 | – |
| CCc1ccc2[nH]c(=O)c(CN(Cc3ccc(C(C)(C)C)cc3)[C@@H](C)c3ccc(F)cc3)cc2c1 | 6.10 | > 5 | – |
| COc1ccc(C(C)N(Cc2ccc(C(C)(C)C)cc2)Cc2cc3cc(C)ccc3[nH]c2=O)cc1Cl (stereo unspecified) | 6.96 | > 10 | – |
| Cc1ccc2[nH]c(=O)c(CN(Cc3cccc(F)c3)Cc3ccc4ccccc4c3)cc2c1 | 5.51 | > 5 | – |
| Cc1ccc2[nH]c(=O)c(CN(Cc3ccc(SC(F)(F)F)cc3)Cc3ccc(C(C)(C)C)cc3)cc2c1 | 5.89 | > 5 | – |
| Cc1ccc2cc(CN(Cc3ccc(C(C)C)cc3)Cc3cccc(F)c3)c(=O)[nH]c2c1 | 5.68 | > 33 | – |
| COc1ccc(CN(Cc2ccc(C(C)(C)C)cc2)Cc2cc3cc(C)ccc3[nH]c2=O)cc1 | 6.48 | > 10 | – |

| SMILES | pEC50 [4] | CC50 at 48 h [8] [µM] | further results |
| --- | --- | --- | --- |
| CCc1ccc2[nH]c(=O)c(CN(Cc3ccc(F)cc3)Cc3ccc(C(C)(C)C)cc3)cc2c1 | 6.19 | > 33 | – |
| C[C@@H](c1ccc(OC(F)(F)F)cc1)N(Cc1ccc(C(C)(C)C)cc1)Cc1cc2cc(C3CC3)ccc2[nH]c1=O | 7.11 | > 10 | inhibition [7]: Active; pEC50 [1]: 7.17; pEC50 [3]: 6.57; pEC50 [5]: 7.19; pEC50 [10]: 6.64; inhibition [9]: Active; pEC50 [6]: 7.14 |
| CC(C)c1ccc2[nH]c(=O)c(CN(Cc3ccc(C(C)(C)C)cc3)C(C)c3ccc(F)cc3)cc2c1 (stereo unspecified) | 5.27 | 13.1 | – |
| O=C1c2c(O)c(=O)ccn2N([C@@H]2c3ccccc3SCc3c2ccc(F)c3F)[C@@H]2COCCN12 [BALOXAVIR] | 8.52 | – | pEC50 [1]: 8.15; pEC50 [3]: 8.40; pEC50 [5]: 8.22; inhibition [11]: Active; pEC50 [10]: 6.77; pEC50 [6]: 8.40 |
| CCCc1ccc2[nH]c(=O)c(CN(Cc3ccc(F)cc3)Cc3ccc(C(C)(C)C)cc3)cc2c1 | 4.55 | 8.4 | – |
| CC(C)(C)c1ccc(CN(Cc2ccc(C(F)(F)F)c(Cl)c2)Cc2cc3cc(C4CC4)ccc3[nH]c2=O)cc1 | 6.20 | > 10 | – |
| Cc1ccc2[nH]c(=O)c(CN(Cc3ccc(SC(F)F)cc3)Cc3ccc(C(C)(C)C)cc3)cc2c1 | 6.19 | > 5 | – |
| Cc1ccc2cc(CN(Cc3ccc(Cl)cc3)Cc3ccc(C(C)C)cc3)c(=O)[nH]c2c1 | 5.21 | > 33 | – |
| COc1ccc(C(C)N(Cc2ccc(C(C)(C)C)cc2)Cc2cc3cc(Br)ccc3[nH]c2=O)cc1Cl (stereo unspecified) | 6.28 | > 10 | – |
| CSc1ccc(CN(Cc2ccc(C(C)(C)C)cc2)Cc2cc3cc(C)ccc3[nH]c2=O)cc1 | 6.29 | > 5 | – |
| C[C@@H](c1ccc(OC(F)(F)F)cc1)N(Cc1ccc(C(C)(C)C)cc1)Cc1cc2cc(C(F)(F)F)ccc2[nH]c1=O | 6.59 | > 10 | – |
| Cc1ccc2[nH]c(=O)c(CN(Cc3ccc(N(C)C)cc3)Cc3ccc(C(C)(C)C)cc3)cc2c1 | 6.34 | > 5 | – |
| CC(c1ccc(OC(F)(F)F)c(Cl)c1)N(Cc1ccc(C(C)(C)C)cc1)Cc1cc2cc(Br)ccc2[nH]c1=O (stereo unspecified) | 6.55 | > 10 | – |
| Cc1ccc2[nH]c(=O)c(CN(Cc3ccc(O)cc3)Cc3ccc(C(C)(C)C)cc3)cc2c1 | 5.68 | 4.9 | – |
| CCc1ccc(CN(Cc2ccc(F)cc2)Cc2cc3ccc(C)cc3[nH]c2=O)cc1 | 5.74 | > 33 | – |
| CCc1ccc2[nH]c(=O)c(CN(Cc3ccc(OC(F)F)cc3)Cc3ccc(C(C)(C)C)cc3)cc2c1 | 6.34 | > 5 | – |
| CCc1ccc2[nH]c(=O)c(CN(Cc3ccc(F)cc3)Cc3ccc4ccccc4c3)cc2c1 | 5.68 | > 5 | – |
| Cc1ccc2[nH]c(=O)c(CN(Cc3ccc(C(C)(C)C)cc3)C(C)c3ccc(F)cc3)cc2c1 (stereo unspecified) | 5.89 | > 33 | – |
| CCC(C)(C)n1nnnc1C(c1cc2cccc(C)c2[nH]c1=O)N(Cc1ccccc1)Cc1ccc(F)cc1 (stereo unspecified) | 6.24 | > 83 | inhibition [2]: Dose-Dependent Effect |
| Cc1cccc2cc(C(C#N)N(Cc3ccccc3)Cc3ccc(C(C)C)cc3)c(=O)[nH]c12 (stereo unspecified) | 4.80 | > 83 | – |
| Cc1ccc2cc(C(C)N(Cc3ccc(F)cc3)Cc3ccc(C(C)C)cc3)c(=O)[nH]c2c1 (stereo unspecified) | 5.72 | > 33 | – |
